Patent publication EP0845210A1, “New herbicidal compositions” (RHONE-POULENC AGRICULTURE LTD., priority 1994, dated 1996)

Assays:
Format in all cases: in vivo
Digitaria sanguinalis = test: Procedure A: pre-emergence glasshouse pot test, growth reduction assessed two weeks after treatment
From the text: (§1) Seed of the various species of broad-leaf or grass weeds were sown in unsterilised clay loam soil in 7 centimetre by 7 centimetre plastic plant pots. The pots were watered and allowed to drain. The soil surface was then sprayed with ranges of concentrations of either the individual herbicide or mixtures of two herbicides in various proportions, dissolved in a 50:50 by volume solution of acetone and water, using a track sprayer set to deliver the equivalent of 290 l/ha. All herbicides were used as unformulated technical materials except dimethenamid, which was used as the commercial formulation "Frontiere" (trade mark), a flowable containing 900g/l active ingredient; and alachlor, which was used as "Lasso" (trade mark), an emulsifiable concentrate formulation containing 480g/l active ingredient.
(§2) Treated pots were placed at random in four replicate blocks per treatment for each plant species. The pots were held, in a glasshouse, standing on moist capillary matting, under lights and with overhead watering twice daily.
(§3) Two weeks after treatment the percent reduction in plant growth, compared to an untreated control, was assessed.
(§4) Mean percent reduction in plant growth was calculated for each treatment. Dose/mean response was plotted on Log concentration/Probability graph paper, and lines fitted by eye. For herbicide mixtures a dose/response line for the first herbicide was drawn for each dose rate of the second herbicide and a dose/response line for the second herbicide was drawn for each dose rate of the first herbicide. The doses representing a 90% reduction in plant growth (LD90's) were read from these lines and plotted on graphs whose axes were dose rates of the two herbicides. The line joining these points is an Isobole i.e. a line joining points (mixtures) of equal activity, as described by P.M.L. Tammes, Neth. J. Plant Path. 70 (1964) : 73-80. A line was also drawn joining the LD90's of the individual components of the mixture. This line represents the theoretical isobole if the effect of the two components is additive i.e. there is no interaction between them. Isoboles falling below this line indicate synergy between the components while lines lying above it indicate antagonism.
(§5) In the tables that follow 'dose' represents the dose rate in grammes per hectare of the active ingredient used; and the figures for the weed control are percentages reduction in growth when compared with the untreated controls.

Echinochloa crus-galli = test: as above
From the text: as §1, §2, §3, §4, §5

maize (Zea mays) = test: Procedure D: pre-emergence field trial (Volga, Brookings), crop phytotoxicity about 26 days after treatment
Experimental: (§6) The following experiments were carried out pre-emergence of the weed species. Compound A, formulated as a wettable dispersible granule as described in Example 1 herebelow (750g per kilogram) and each acetochlor (used as the commercially available formulation "Harness" (trade mark), an emulsifiable concentrate containing 960g of acetochlor per kilogram, and which also contains the safening agent flurazole, metolachlor (used as the commercially available formulation "Duelor" (trade mark), an emulsifiable concentrate emulsifiable concentrate containing 960g of metolachlor per kilogram), alachlor (used as the commercially available formulation "Lasso" (trade mark), an emulsifiable concentrate containing 480g of alachlor per kilogram) and dimethenamid (used as the commercially available formulation "Frontiere" (trade mark), a flowable containing 900g/l active ingerident) were dissolved in water and sprayed at a volume rate of 187 litres/hectare on various test plots (10 square meters in area) either alone or in mixtures. The soil was a clay-loam, with a pH of 7, the experiments being conducted in June in Volga, Brookings, U.S.A. The various weed and crop species were drill sown and the various compositions were applied on the same day after drilling. Three replicates were performed and the efficacy of the various mixtures were determined by visual assessment of the percentage phytotoxicity in comparison with an untreated control. Assessment was made about 26 days after treatment. In the Tables which follow the dose is expressed in grammes per hectare and the figures in brackets represent the expected results according to the Colby formula.

Helianthus annuus = test: Procedure D: pre-emergence field trial (Volga, Brookings), visual assessment about 26 days after treatment
Experimental: as §6

Abutilon theophrasti [1] = test: as above
Experimental: as §6

Panicum miliaceum = test: as above
Experimental: as §6

Abutilon theophrasti [2] = test: Procedure B: pre-emergence field trial (research farm in Brazil), visual assessment 36 or 40 days from sowing
Experimental: (§7) The experiments were carried out pre-emergence of the weed species at • (i) a research farm in Brazil with Compounds B and C (each formulated as a wettable powder) and metolachlor, (formulated as a suspension concentrate); and • (ii) in research farms in the Mid West corn belt of the United States with compound D (formulated as a wettable powder) and metolachlor (formulated as a suspension concentrate).
(§8) A solution of the two active ingredients (a.i.) was mixed for one hour and applied at a spray volume of 231 litres/hectare to a 3 metre by 5 metre test plot comprising the weed species which were sown 2 days earlier. 3 replicates were performed. A control plot was sprayed with a solution not containing test compound. Visual assessment of phytotoxicity was made after 36 or 40 days from sowing each weed species based on a comparison with the control plot.
(§9) The tables below show the observed percentage control of the weed species by each combination, with the figure in brackets representing the predicted value using the Limpel formula. The dose rates are in grammes per hectare. Table E1

Amaranthus retroflexus [3] = test: Procedure A: pre-emergence glasshouse pot test, growth reduction assessed two weeks after treatment
From the text: as §1, §2, §3, §4, §5

Setaria viridis = test: as above
From the text: as §1, §2, §3, §4, §5

Amaranthus retroflexus [4] = test: Procedure B: pre-emergence field trial (Mid West corn belt research farms), visual assessment 36 or 40 days from sowing
Experimental: as §7, §8, §9

Setaria faberii = test: as above
Experimental: as §7, §8, §9

[5] = acetochlor 480 g/ha alone (Harness, contains safener flurazole)
[6] = metolachlor 480 g/ha alone, 1st Research Farm
[7] = metolachlor 480 g/ha alone, 2nd Research Farm
[8] = metolachlor 480 g/ha alone, 3rd Research Farm
[9] = D 37.5 g/ha alone, 1st Research Farm
[10] = D 37.5 g/ha alone, 2nd Research Farm
[11] = D 37.5 g/ha alone, 3rd Research Farm

CCOCN(C(=O)CCl)c1c(C)cccc1CC [Acetochlor, 2-chloro-N-ethoxymethyl-6'-ethylacet-o-toluidide, reference compound]
percent reduction in plant growth (Digitaria sanguinalis; acetochlor 3.75 g/ha alone): 0% | percent reduction in plant growth (Digitaria sanguinalis; acetochlor 7.5 g/ha alone): 0% | percent reduction in plant growth (Digitaria sanguinalis; acetochlor 15 g/ha alone): 7.5% | percent reduction in plant growth (Digitaria sanguinalis; acetochlor 30 g/ha alone): 32.5% | percent reduction in plant growth (Digitaria sanguinalis; acetochlor 60 g/ha alone): 85% | percent reduction in plant growth (Digitaria sanguinalis; acetochlor 120 g/ha alone): 100% | percent reduction in plant growth (Digitaria sanguinalis; acetochlor 240 g/ha alone): 98.75% | percent reduction in plant growth (Echinochloa crus-galli; acetochlor 3.75 g/ha alone): 12.5% | percent reduction in plant growth (Echinochloa crus-galli; acetochlor 7.5 g/ha alone): 36.25% | percent reduction in plant growth (Echinochloa crus-galli; acetochlor 15 g/ha alone): 55% | percent reduction in plant growth (Echinochloa crus-galli; acetochlor 30 g/ha alone): 88.75% | percent reduction in plant growth (Echinochloa crus-galli; acetochlor 60 g/ha alone): 98.75% | percent reduction in plant growth (Echinochloa crus-galli; acetochlor 120 g/ha alone): 98.75% | percent reduction in plant growth (Echinochloa crus-galli; acetochlor 240 g/ha alone): 100% | percentage phytotoxicity (maize (Zea mays); [5]): 0% | percentage phytotoxicity (Helianthus annuus; [5]): 10% | percentage phytotoxicity (Abutilon theophrasti [1]; [5]): 35% | percentage phytotoxicity (Panicum miliaceum; [5]): 72%

CCc1cccc(CC)c1N(COC)C(=O)CCl [Alachlor, 2-chloro-2',6'-diethyl-N-methoxymethylacetanilide, reference compound]
percent reduction in plant growth (Digitaria sanguinalis; alachlor 4 g/ha alone): 0% | percent reduction in plant growth (Digitaria sanguinalis; alachlor 8 g/ha alone): 25% | percent reduction in plant growth (Digitaria sanguinalis; alachlor 16 g/ha alone): 6.25% | percent reduction in plant growth (Digitaria sanguinalis; alachlor 32 g/ha alone): 37.5% | percent reduction in plant growth (Digitaria sanguinalis; alachlor 64 g/ha alone): 75% | percent reduction in plant growth (Digitaria sanguinalis; alachlor 128 g/ha alone): 95% | percent reduction in plant growth (Echinochloa crus-galli; alachlor 4 g/ha alone): 18.75% | percent reduction in plant growth (Echinochloa crus-galli; alachlor 8 g/ha alone): 5% | percent reduction in plant growth (Echinochloa crus-galli; alachlor 16 g/ha alone): 12.5% | percent reduction in plant growth (Echinochloa crus-galli; alachlor 32 g/ha alone): 46.25% | percent reduction in plant growth (Echinochloa crus-galli; alachlor 64 g/ha alone): 91.25% | percent reduction in plant growth (Echinochloa crus-galli; alachlor 128 g/ha alone): 98.75% | percentage phytotoxicity (maize (Zea mays); alachlor 480 g/ha alone): 0% | percentage phytotoxicity (Helianthus annuus; alachlor 480 g/ha alone): 3% | percentage phytotoxicity (Abutilon theophrasti [1]; alachlor 480 g/ha alone): 20% | percentage phytotoxicity (Panicum miliaceum; alachlor 480 g/ha alone): 53%

CS(=O)(=O)c1ccc(C(=O)c2cnoc2C2CC2)c(Cl)c1 [Compound C, 4-(2-chloro-4-methylsulphonyl)benzoyl-5-cyclopropylisoxazole]
observed percentage control of the weed species (Abutilon theophrasti [2]; C 50 g/ha alone): 73%

CCc1cccc(C)c1N(C(=O)CCl)C(C)COC (stereo not drawn) [Metolachlor, 2-chloro-6'-ethyl-N-(2-methoxy-1-methylethyl)acet-o-toluidide, reference compound]
percent reduction in plant growth (Amaranthus retroflexus [3]; metolachlor 31.25 g/ha alone): 46.25% | percent reduction in plant growth (Amaranthus retroflexus [3]; metolachlor 62.5 g/ha alone): 53.75% | percent reduction in plant growth (Amaranthus retroflexus [3]; metolachlor 125 g/ha alone): 35% | percent reduction in plant growth (Amaranthus retroflexus [3]; metolachlor 250 g/ha alone): 85% | percent reduction in plant growth (Amaranthus retroflexus [3]; metolachlor 500 g/ha alone): 95% | percent reduction in plant growth (Setaria viridis; metolachlor 2 g/ha alone): 5% | percent reduction in plant growth (Setaria viridis; metolachlor 4 g/ha alone): 22.5% | percent reduction in plant growth (Setaria viridis; metolachlor 8 g/ha alone): 38.75% | percent reduction in plant growth (Setaria viridis; metolachlor 16 g/ha alone): 61.25% | percent reduction in plant growth (Setaria viridis; metolachlor 32 g/ha alone): 87.5% | percent reduction in plant growth (Setaria viridis; metolachlor 64 g/ha alone): 98% | observed percentage control of the weed species (Abutilon theophrasti [2]; metolachlor 1000 g/ha alone): 0% | percentage phytotoxicity (maize (Zea mays); metolachlor 480 g/ha alone): 0% | observed percentage control of the weed species (Amaranthus retroflexus [4]; [6]): 38% | observed percentage control of the weed species (Amaranthus retroflexus [4]; [7]): 78% | observed percentage control of the weed species (Amaranthus retroflexus [4]; [8]): 91% | observed percentage control of the weed species (Setaria faberii; [6]): 91% | observed percentage control of the weed species (Setaria faberii; [7]): 93% | observed percentage control of the weed species (Setaria faberii; [8]): 84% | percentage phytotoxicity (Helianthus annuus; metolachlor 480 g/ha alone): 3% | percentage phytotoxicity (Abutilon theophrasti [1]; metolachlor 480 g/ha alone): 10% | percentage phytotoxicity (Panicum miliaceum; metolachlor 480 g/ha alone): 52%

COCC(C)N(C(=O)CCl)c1c(C)csc1C (stereo not drawn) [Dimethenamid, 2-chloro-N-(2,4-dimethyl-3-thienyl)-N-(2-methoxy-1-methyl)ethyl-acetamide, reference compound]
percent reduction in plant growth (Digitaria sanguinalis; dimethenamid 4 g/ha alone): 16.25% | percent reduction in plant growth (Digitaria sanguinalis; dimethenamid 8 g/ha alone): 15% | percent reduction in plant growth (Digitaria sanguinalis; dimethenamid 16 g/ha alone): 77.5% | percent reduction in plant growth (Digitaria sanguinalis; dimethenamid 32 g/ha alone): 89.75% | percent reduction in plant growth (Digitaria sanguinalis; dimethenamid 64 g/ha alone): 98.25% | percent reduction in plant growth (Digitaria sanguinalis; dimethenamid 128 g/ha alone): 92.5% | percent reduction in plant growth (Digitaria sanguinalis; dimethenamid 256 g/ha alone): 98.75% | percent reduction in plant growth (Echinochloa crus-galli; dimethenamid 4 g/ha alone): 17.5% | percent reduction in plant growth (Echinochloa crus-galli; dimethenamid 8 g/ha alone): 38.75% | percent reduction in plant growth (Echinochloa crus-galli; dimethenamid 16 g/ha alone): 81.25% | percent reduction in plant growth (Echinochloa crus-galli; dimethenamid 32 g/ha alone): 93.5% | percent reduction in plant growth (Echinochloa crus-galli; dimethenamid 64 g/ha alone): 97.5% | percent reduction in plant growth (Echinochloa crus-galli; dimethenamid 128 g/ha alone): 100% | percentage phytotoxicity (maize (Zea mays); dimethenamid 200 g/ha alone): 0% | percentage phytotoxicity (Helianthus annuus; dimethenamid 200 g/ha alone): 3% | percentage phytotoxicity (Abutilon theophrasti [1]; dimethenamid 200 g/ha alone): 12% | percentage phytotoxicity (Panicum miliaceum; dimethenamid 200 g/ha alone): 27%

CS(=O)(=O)c1ccc(C(=O)c2cnoc2C2CC2)c(C(F)(F)F)c1 [Compound B, 5-cyclopropyl-4-(4-methylsulphonyl-2-trifluoromethyl)benzoylisoxazole]
observed percentage control of the weed species (Abutilon theophrasti [2]; B 50 g/ha alone): 75%

CS(=O)(=O)c1cc(Cl)ccc1C(=O)c1cnoc1C1CC1 [Compound D, 4-(4-chlor-2-methylsulphonyl)benzoyl-5-cyclopropylisoxazole]
observed percentage control of the weed species (Amaranthus retroflexus [4]; [9]): 38% | observed percentage control of the weed species (Amaranthus retroflexus [4]; [10]): 10% | observed percentage control of the weed species (Amaranthus retroflexus [4]; [11]): 10% | observed percentage control of the weed species (Setaria faberii; [9]): 22% | observed percentage control of the weed species (Setaria faberii; [10]): 62% | observed percentage control of the weed species (Setaria faberii; [11]): 32%
